The target of data set [1] is T1, A156T mutant of the HCV NS3/4A 1b protease enzyme (Hepatitis C virus genotype 1b, UniProt P26663, A1182T).
T1 construct: 10× stocks of NS3/4A protease enzyme from Bioenza (Mountain View, Calif.); purchased Bioenza (Mountain View, Calif.)
In words: HCV Protease FRET Assay (IC50), A156T mutant. In kind it is biochemical. Conditions: read-out: Inhibition, HCV A156T; A156T enzyme, FRET assay. The method, then: HCV Protease FRET Assay for Wild Type and Mutated NS3/4A 1b Enzymes (IC50)
The protocol is a modified FRET-based assay (v—02) from In Vitro Resistance Studies of HCV Serine Protease Inhibitors, 2004, JBC, vol. 279, No. 17, pp 17508-17514.
10× stocks of NS3/4A protease enzyme from Bioenza (Mountain View, Calif.) and 1.13× 5-FAM/QXL™ 520 FRET peptide substrate from Anaspec (San Jose, Calif.) were prepared in 50 mM HEPES, pH 7.8, 100 mM NaCl, 5 mM DTT and 20% glycerol. 5 μL of each enzyme were pre-incubated in a Corning (#3573) 384-well, black, non-treated microtiter plate (Corning, N.Y.) for 30 min at 25° C. with a 0.5 μL volume of 50% DMSO and serially diluted compounds prepared in 50% DMSO. Protease reactions were started with the addition of 45 μL of the FRET substrate and monitored for 120 minutes at λex487/λem514 through Quad^4 monochromoters in a Synergy^4 plate reader from BioTek (Winooski, Vt.). At the conclusion of each assay, progress curves from each well were examined for linear reaction kinetics and fit statistics (R^2, absolute sum of squares). Initial velocity (0 minutes to 30+ minutes) from each reaction was determined from the slope of a plot of relative fluorescence units vs time (minutes) and then plotted against inhibitor concentration to estimate IC50 from log[Inhibitor] vs Response, Variable Slope model in GraphPad Prism from GraphPad Software (San Diego, Calif.).
The compound numbers correspond to the compound numbers in Table 3. […] ;

The test system of data set [2] is cell line ET (luc-ubi-neo/ET), human Huh7 hepatoma cell line. In words: Method A: cytotoxicity in ET replicon cells (CytoTox-1). In kind it is cell-based. As to conditions: concentration decreasing cell viability by 50%, 72 hr. The method, then: The compounds were assayed to evaluate the antiviral activity and cytotoxicity of compounds in vitro using HCV RNA replicons. This assay used the cell line ET (luc-ubi-neo/ET), which is a human Huh7 hepatoma cell line that contains an HCV RNA replicon with a stable luciferase (Luc) reporter and three cell culture-adaptive mutations. […]
The ET cell line was grown in Dulbecco's modified essential media (DMEM), 10% fetal bovine serum (FBS), 1% penicillin-streptomycin (pen-strep), 1% glutamine, 250 μg/ml G418 in a 5% CO2 incubator at 37° C. All cell culture reagents were obtained from Mediatech (Manassas, Va.). Cells were trypsinized (1% trypsin:EDTA) and plated out at 5×10^3 cells/well in white 96-well assay plates (Costar) dedicated to cell number (cytotoxicity) or antiviral activity assessments. Drugs were added at six 3-fold concentrations each and the assay was run in DMEM, 5% FBS, 1% pen-strep, 1% glutamine. Human interferon alpha-2b (PBL Biolabs, New Brunswick, N.J.) was included in each run as a positive control compound. Cells were processed 72 hr post drug addition when the cells are still subconfluent. Antiviral activity was measured by analyzing replicon-derived luciferase activity using the Steady-Glo Luciferase Assay System (Promega, Madison, Wis.) according to manufacturer's instruction. The number of cells in each well was determined by CytoTox-1 reagent (Promega). […].

Data set [3] has as its target T2, wild type HCV NS3/4A 1b protease enzyme (Hepatitis C virus genotype 1b, UniProt P26663).
T2 construct: 10× stocks of NS3/4A protease enzyme from Bioenza (Mountain View, Calif.); purchased Bioenza (Mountain View, Calif.)
In words: biochemical. In kind it is biochemical. Conditions: read-out: Inhibition, WT; WT enzyme, FRET assay.

Data set [4] addresses T3, D168A mutant of the HCV NS3/4A 1b protease enzyme (Hepatitis C virus genotype 1b, UniProt P26663, D1194A).
T3 construct: 10× stocks of NS3/4A protease enzyme from Bioenza (Mountain View, Calif.); purchased Bioenza (Mountain View, Calif.)
Put plainly: HCV Protease FRET Assay (IC50), D168A mutant. In kind it is biochemical. As to conditions: read-out: Inhibition, HCV D168A; D168A enzyme, FRET assay.

Data set [5] relates to HCV RNA replicon in cell line ET (luc-ubi-neo/ET), human Huh7 hepatoma. In words: Method A: HCV RNA replicon antiviral assay (luciferase, ET cell line). In kind it is cell-based, Hepatitis C virus. Conditions: Hepatitis C virus, Huh-7. The method in brief:
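Six 3-fold dilutions of each drug were tested on subconfluent luc-ubi-neo/ET Huh7 replicon cells (5×10^3/well) for 72 hr at 37 °C. EC50 and EC90 came from luciferase read-out, IC50 from CytoTox-1 cell number, and […]; interferon alpha-2b was run each time as control.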

The target in data set [6] is T1, A156T mutant of the HCV NS3/4A 1b protease enzyme. Put plainly: HCV Protease FRET Assay (IC50_APP), A156T mutant. In kind it is biochemical. Conditions: apparent IC50, A156T mutant; read-out: IC50_APP, HCV A156T.
For data set [7], the target named is T2, wild type HCV NS3/4A 1b protease enzyme. Put plainly: HCV Protease FRET Assay (IC50_APP), wild type. In kind it is biochemical. As to conditions: read-out: IC50_APP, WT; apparent IC50, wild type NS3/4A 1b.
For data set [8], the target named is T3, D168A mutant of the HCV NS3/4A 1b protease enzyme. In words: HCV Protease FRET Assay (IC50_APP), D168A mutant. Conditions: apparent IC50, D168A mutant; read-out: IC50_APP, HCV D168A. In kind it is biochemical.
Setting [9] is: Replicon, assay of Example 22, 72 hr, read-out: Inhibition, Replicon.
[10] abbreviates: assay described in Example 22, read-out: Replicon (IC50).

Each structure is given as a SMILES string. pIC50: −log10 of the molar value. Read-outs that look alike come from different tables or passages of the source.

Regarding `C=C[C@@H]1C[C@]1(NC(=O)[C@@H]1C[C@@H](Oc2cc(-c3ccccc3)nc3cc(OC)ccc23)CN1C(=O)[C@H](CNC(=O)/C=C/CN(C)C)NC(=O)OC(C)(C)C)C(=O)NS(=O)(=O)c1ccccc1` [Compound I-5, N-[(1,1-dimethylethoxy)carbonyl]-3-[(4-dimethylamino-2-butenoyl)amino]-L-alanyl-(4R)-4-[(7-methoxy-2-phenyl-4-quinolinyl)oxy]-L-prolyl-1-amino-2-ethenyl-N-(phenylsulfonyl)-(1R,2S)-cyclopropanecarboxamide], the pIC50 in data set [1] is 5.00 to 6.00; in data set [3], > 8.00; in data set [4], 5.00 to 6.00; in data set [5] (setting [9]) it was 5.00 to 6.00. Also, the “Inhibition, Cytotoxicity” value in data set [2] is listed as “E (IC50≧10,000 nM)”.
As to `C=CC(=O)NCC[C@H](NC(=O)OC(C)(C)C)C(=O)N1C[C@H](Oc2cc(-c3ccccc3)nc3cc(OC)ccc23)C[C@H]1C(=O)N[C@]1(C(=O)NS(=O)(=O)c2ccccc2)C[C@H]1C=C` [Compound I-8, (2S)-2-[[(1,1-dimethylethoxy)carbonyl]amino]-4-(2-propenoyl)amino-butanoyl-(4R)-4-[(7-methoxy-2-phenyl-4-quinolinyl)oxy]-L-prolyl-1-amino-2-ethenyl-N-(phenylsulfonyl)-(1R,2S)-cyclopropanecarboxamide], the pIC50 in data set [1] was 7.00 to 8.00; in data set [3], > 8.00; in data set [4] it was 7.00 to 8.00; in data set [5] (setting [9]), 6.00 to 7.00. For the same molecule, the “Inhibition, Cytotoxicity” value in data set [2] was “D (IC50>1000 nM and <10,000 nM)”.
In the case of `C=CC(=O)N1CCC(NC(=O)OC(C)(C)C)(C(=O)N2C[C@H](Oc3cc(-c4ccccc4)nc4cc(OC)ccc34)C[C@H]2C(=O)N[C@]2(C(=O)NS(=O)(=O)c3ccccc3)C[C@H]2C=C)CC1` [Compound I-26, tert-butyl-1-acryloyl-4-((2S,4R)-4-(7-methoxy-2-phenylquinolin-4-yloxy)-2-((1R,2S)-1-(phenylsulfonylcarbamoyl)-2-vinylcyclopropylcarbamoyl)pyrrolidine-1-carbonyl)piperidin-4-ylcarbamate], the “Inhibition, Cytotoxicity” value in data set [2] is on record as “E (IC50≧10,000 nM)”. The pIC50 in data set [3] was > 8.00; in data set [4] it was 6.00 to 7.00; in data set [5] (setting [9]), < 5.00.
Turning to `C=C[C@@H]1C[C@]1(NC(=O)[C@@H]1C[C@@H](Oc2cc(-c3ccccc3)nc3cc(OC)ccc23)CN1C(=O)[C@H](CN(C)C(=O)/C=C/CN(C)C)NC(=O)OC(C)(C)C)C(=O)NS(=O)(=O)c1ccccc1` [Compound I-30, tert-butyl-(S)-3-((E)-4-(dimethylamino)-N-methylbut-2-enamido)-1-((2S,4R)-4-(7-methoxy-2-phenylquinolin-4-yloxy)-2-((1R,2S)-1-(phenylsulfonylcarbamoyl)-2-vinylcyclopropylcarbamoyl)pyrrolidin-1-yl)-1-oxopropan-2-ylcarbamate], the pIC50 is 5.00 to 6.00 in data set [6]; > 8.00 in data set [3]; 7.00 to 8.00 in data set [7]; 6.00 to 7.00 in data set [4]; 5.00 to 6.00 in data set [8]; 7.00 to 8.00 in data set [5] (setting [9]). Besides, the pIC50 in data set [5] (setting [10]) was 7.00 to 8.00. The “Inhibition, Cytotoxicity” value in data set [2] is reported as “E (IC50≧10,000 nM)”. Moreover, in data set [5] (assay described in Example 22), the IC90 is 0.1 to 1 µM.
Consider `C=C[C@@H]1C[C@]1(NC(=O)[C@@H]1C[C@@H](Oc2cc(-c3ccccc3)nc3cc(OC)ccc23)CN1C(=O)[C@H](CN(C)C(=O)C(=C)C)NC(=O)OC(C)(C)C)C(=O)NS(=O)(=O)c1ccccc1` [Compound I-32, tert-butyl-(S)-1-((2S,4R)-4-(7-methoxy-2-phenylquinolin-4-yloxy)-2-((1R,2S)-1-(phenylsulfonylcarbamoyl)-2-vinylcyclopropylcarbamoyl)pyrrolidin-1-yl)-3-(N-methylmethacrylamido)-1-oxopropan-2-ylcarbamate], for which, in data set [2], the “Inhibition, Cytotoxicity” value is given as “E (IC50≧10,000 nM)”. Moreover, the pIC50 was > 8.00 in data set [3], 5.00 to 6.00 in data set [4] and 6.00 to 7.00 in data set [5] (setting [9]).
In the same order, the values of `C=CC(=O)NC[C@H](NC(=O)OC(C)(C)C)C(=O)N1C[C@H](Oc2cc(-c3ccccc3)nc3cc(OC)ccc23)C[C@H]1C(=O)N[C@]1(C(=O)O)C[C@H]1C=C` [Compound I-41, (1R,2S)-1-((2S,4R)-1-((S)-3-acrylamido-2-(tert-butoxycarbonylamino)propanoyl)-4-(7-methoxy-2-phenylquinolin-4-yloxy)pyrrolidine-2-carboxamido)-2-vinylcyclopropanecarboxylic acid] are “E (IC50≧10,000 nM)”, 7.00 to 8.00, 5.00 to 6.00 and < 5.00.
As to `C#CCN(C)C(=O)CCCC(=O)N[C@@H](CNC(=O)C=C)C(=O)N1C[C@H](Oc2cc(-c3ccccc3)nc3cc(OC)ccc23)C[C@H]1C(=O)N[C@]1(C(=O)NS(=O)(=O)c2ccccc2)C[C@H]1C=C` [Compound I-42], the pIC50 in data set [1] was 6.00 to 7.00; in data set [3] it was > 8.00; in data set [7], 7.00 to 8.00; in data set [8], 6.00 to 7.00; in data set [5] (setting [9]) it was < 5.00; in data set [5] (setting [10]) it was < 5.00. In addition, the “Inhibition, Cytotoxicity” value in data set [2] is listed as “E (IC50≧10,000 nM)”. The IC90 in data set [5] (assay described in Example 22) is > 10 µM.
For `C=C[C@@H]1C[C@]1(NC(=O)[C@@H]1C[C@@H](Oc2cc(-c3ccccc3)nc3cc(OC)ccc23)CN1C(=O)CNC(=O)/C=C/C)C(=O)NS(=O)(=O)c1ccccc1` [Compound I-47, (2S,4R)-1-(2-(E)-but-2-enamidoacetyl)-4-(7-methoxy-2-phenylquinolin-4-yloxy)-N-((1R,2S)-1-(phenylsulfonylcarbamoyl)-2-vinylcyclopropyl)pyrrolidine-2-carboxamide], the “Inhibition, Cytotoxicity” value in data set [2] is recorded as “E (IC50≧10,000 nM)”. For the same molecule, the pIC50 is 7.00 to 8.00 in data set [3], 5.00 to 6.00 in data set [4] and 5.00 to 6.00 in data set [5] (setting [9]).
In the case of `C=C[C@@H]1C[C@]1(NC(=O)[C@@H]1C[C@@H](Oc2cc(-c3ccccc3)nc3cc(OC)ccc23)CN1C(=O)CNC(=O)C#CC)C(=O)NS(=O)(=O)C1CC1` [Compound I-48, (2S,4R)-1-(2-but-2-ynamidoacetyl)-N-((1R,2S)-1-(cyclopropylsulfonylcarbamoyl)-2-vinylcyclopropyl)-4-(7-methoxy-2-phenylquinolin-4-yloxy)pyrrolidine-2-carboxamide], in data set [2], the “Inhibition, Cytotoxicity” value is given as “E (IC50≧10,000 nM)”. For the same molecule, the pIC50 in data set [3] was 7.00 to 8.00; in data set [4], 5.00 to 6.00; in data set [5] (setting [9]), 5.00 to 6.00.
